Test results taken from patent publication US9555061B2, “Synthesis and analysis of compounds capable of inducing differentiation of human mesenchymal stems cells into hepatocytes” (National University Corporation Torrori University, priority 2011, dated 2017).

Tests used:
Assay type in all cases: cell-based, human
[1] = tested on: clinical specimen-derived mesenchymal stem cells; assay: Immunofluorescence staining in clinical specimen-derived mesenchymal stem cells; conditions: day 8; PN-3-13 20 μM, IC-2 40 μM
Procedure: A cover glass that had been sterilized with 100% ethanol was placed on a 12-well plate. Cells were seeded on the cover glass at a cell density of 1.8×10^4 cells/cm^2. This day was designated as day 0. At day 1 corresponding to the next day, the medium was changed to a medium containing HC-2 (at a final concentration of 20 μM), PN-3-13 (at a final concentration of 20 μM), IC-2 (at a final concentration of 40 μM), or 0.1% DMSO. At day 4, the medium was changed in a manner similar to that at day 1. At day 8, the culture medium was removed and the cells were washed twice with PBS. Then, in order to perform immunostaining of albumin, the cells were fixed for 20 min with 4% paraformaldehyde (Nacalai Tesque) containing 8% sucrose (Wako Pure Chemical Industries, Ltd.). For immunostaining of C/EBPα or CYP1A1, the cells were fixed for 20 min with 4% paraformaldehyde. After that, the cells were permeated with 0.2% Triton X-100 (Wako Pure Chemical Industries, Ltd.) for 10 min and were then blocked in 3% BSA (Nacalai Tesque) at room temperature for 30 min without shaking.
After the primary antibody reaction, the cells were washed with 0.1% BSA/PBS. […] The cells were incubated with each antibody, and were kept in a dark condition at room temperature for 1 h to carry out a secondary antibody reaction. Their nuclei were stained with DAPI (Cell Signaling Technology Inc.). […]

UE7T-13 cells [2] = assay: Hepatocyte differentiation induction, RT-PCR of albumin (UE7T-13); conditions: 15 μM
Procedure: After 24 h, the medium was changed to a medium containing IC-2, etc. After that, the medium was changed twice a week, and the cells were subcultured once a week to adjust a cell number at 9.0×10^3 cells/cm^2. Total RNA was collected at days 8, 16, and 24 after the initiation of the induction.
Total RNA was extracted with a TRIzol reagent. After the extraction, in order to completely remove DNA, deoxyribonuclease was added and the mixture was incubated at 37° C. for 1 h. A SuperScript First-Stand Synthesis System for RT-PCR (Invitrogen) was used for reverse transcription, and an oligo dT primer was used to convert 1 μg of RNA into cDNA. To perform a PCR, the cDNA was diluted by 5 times and 1 μl of the cDNA was used. A recombinant Taq DNA polymerase (Invitrogen) was used for the PCR. With regard to primers for human albumin, 5′-[…]-3′ (SEQ ID NO: 1) and 5′-[…]-3′ (SEQ ID NO: 2) were used. The PCR involved 1 cycle of 95° C. for 2 min and 35 cycles of 95° C. for 30 sec, 58° C. for 30 sec, and 72° C. for 30 sec. Human glyceraldehyde 3-phosphate dehydrogenase (GAPDH) was used as an internal control. With regard to GAPDH primers, 5′-[…]-3′ (SEQ ID NO: 3) and 5′-[…]-3′ (SEQ ID NO: 4) were used. The PCR involved 1 cycle of 95° C. for 2 min and 20 cycles of 95° C. for 30 sec, 60° C. for 30 sec, and 72° C. for 30 sec. […]

[3] = tested on: clinical specimen-derived mesenchymal stem cells; assay: RT-PCR of hepatocyte differentiation marker in clinical specimen-derived mesenchymal stem cells; conditions: hexachlorophene 4 μM, HC-2 20 μM, PN-3-13 20 μM, IC-2 40 μM
Procedure: A fresh bone marrow aspirate was collected under informed consent from a patient (a person) with osteoarthritis who underwent replacement arthroplasty at the Department of Orthopedic Surgery, Tottori University Hospital. This aspirate was subjected to density gradient centrifugation using ficoll (Amersham Biosciences) to separate bone marrow mononuclear cells (FIG. 31). These bone marrow mononuclear cells were suspended in 1 ml of Hanks' balanced salt solution (HBSS, Gibco, Life Technologies Corp.) supplemented with a 100-fold diluted APC-labeled anti-CD90 antibody, a 407-fold diluted PE-labeled anti-CD271 antibody, and 2% fetal bovine serum (FBS, Defined, Thermo Fisher Scientific Inc.), and were stained on ice for 30 min. A flow cytometer (MoFlo XDP, Beckman Coulter Inc.) was used to selectively separate mesenchymal stem cells. The resulting cells were cultured in Dulbecco's Modified Eagle's Medium (Low Glucose, Gibco, Life Technologies Corp.) containing 20% FBS, 100 U/ml penicillin, […] streptomycin (Nacalai Tesque), and 20 ng/ml basic fibroblast growth factor (TRANS GENIC INC., Ltd.) on a 35-mm dish under conditions at 37° C. and 5% CO2. The medium was changed every 4 days. After colonies were formed, the cells were detached using a 0.025% trypsin/1 mM EDTA solution (Nacalai Tesque), split on a 100-mm dish, and cultured under conditions at 37° C. and 5% CO2. Then, the cells which were kept 70 to 80% confluent were detached using trypsin treatment. These cells in one dish were divided into four dishes for passage.
Cells were seeded on a 6-well plate at a cell density of 1.8×10^4 cells/cm^2. This day was designated as day 0. At day 1 corresponding to the next day, the medium was changed to a medium containing any one of hexachlorophene (at a final concentration of 4 μM), HC-2 (at a final concentration of 20 μM), PN-3-13 (at a final concentration of 20 μM), IC-2 (at a final concentration of 40 μM), and 0.1% DMSO. […]

[4] = tested on: CD90+CD271+ bone marrow-derived mesenchymal stem cells; assay: Urea assay in CD90+CD271+ bone marrow-derived mesenchymal stem cells; conditions: hexachlorophene 4 μM, PN-3-13 20 μM, IC-2 40 μM; day 8 plus 96 h ammonium chloride
Procedure: A urea assay was performed according to the following protocol. CD90^+CD271^+ bone marrow-derived mesenchymal stem cells were seeded on a 24-well plate at a cell density of 1.8×10^4 cells/cm^2. This day was designated as day 0. At day 1 corresponding to the next day, each medium was changed to a medium containing hexachlorophene (at a final concentration of 4 μM), HC-2 (at a final concentration of 20 μM), PN-3-13 (at a final concentration of 20 μM), IC-2 (at a final concentration of 40 μM), or 0.1% DMSO. At day 4, the medium was changed in a manner similar to that at day 1, and the cells were cultured until day 8. At day 8, the medium was removed, and replaced with a medium containing ammonium chloride (Nacalai Tesque) at a final concentration of 5 mM. The cells were further cultured for 96 h. At 96 h after the addition of ammonium chloride, levels of urea in the medium were determined using a QuantiChrom Urea Assay Kit (BioAssay Systems) according to the attached protocol by reading the absorbance at a wavelength of 520 nm with a microplate reader. The levels of urea were calculated based on a standard sample according to the attached calculation method. As a negative control for the urea assay, used were CD90^+CD271^+ bone marrow-derived mesenchymal stem cells that were seeded one day before the day of the immunostaining and were not subjected to the differentiation induction.

UE7T-13 cells [5] = assay: Urea assay (UE7T-13); conditions: day 16
Procedure: The cells were plated on a 24-well plate, and were cultured in a medium containing IC-2, etc. Ammonium chloride (at a final concentration of 5 mM) was added to the medium, and the cells were cultured for 48, 72, and 96 h. Then, an amount of urea in the medium was determined using a QuantiChrom Urea Assay Kit (BioAssay Systems) and a fluorescence plate reader (TECAN) at a wavelength of 520 nm.

Q: For “(6S,9aS)-6-phenyl-8-naphthalen-1-ylmethyl-4,7-dioxo-hexahydro-pyrazino[1,2-a]pyrimidine-1-carbocylic acid benzylamide [IC-2]”, which “levels of expression of albumin, C/EBPα, and CYP1A1 compared with negative control (0.1% DMSO)” value [1] is on record?
A: The value was “apparently increased”.

Q: What about the “levels of the albumin expression” value (UE7T-13 cells [2]) of the same substance?
A: Its value is “particularly high”.

Q: What about the expression of albumin [3] of the same substance?
A: The expression of albumin was “induced”.

Q: What about the “cellular urea synthesis compared with negative control (0.1% DMSO)” value [4] of the same substance?
A: Its value is “apparent increase”.

Q: What about the “cellular urea synthesis compared with negative control (0.1% DMSO)” value (UE7T-13 cells [5]) of the same substance?
A: Its value is “remarkably increased”.
